Test: an = mass per volume of the nth substance listed, in kg/m3
Details: Wilhelmy plate method

CCCCCCCCCCCCOS(=O)(=O)[O-].[Na+] [sodium dodecyl sulfate] + O
surface tension liquid-gas [mN/m]
Details | a1 = 0.00627 | a1 = 0.0157 | a1 = 0.0273 | a1 = 0.0338
298.15 K | – | 63.71 | 62.6 | 67.63
299.15 K | 70.29 | 63.57 | 62.49 | 67.44
300.15 K | 70.16 | 63.41 | 62.36 | 67.29
301.15 K | 70.01 | 63.26 | 62.25 | 67.11
302.15 K | 69.84 | 63.08 | 62.11 | 66.95
303.15 K | 69.68 | 62.94 | 62.01 | 66.77
304.15 K | 69.53 | 62.76 | 61.9 | 66.61
305.15 K | 69.39 | 62.66 | 61.83 | 66.42
306.15 K | 69.23 | 62.52 | 61.72 | 66.25
307.15 K | 69.08 | 62.32 | 61.62 | 66.04
308.15 K | 68.94 | 62.16 | 61.54 | –
